Legend:
[1] = target: T1, SHP2 enzyme (catalytic domain, amino acid sequence 224-528) (Homo sapiens, UniProt Q06124); assay: SHP2 enzyme inhibition assay (DiFMUP substrate, fluorescence); assay type: biochemical; conditions: for IC50: SHP2 catalytic domain, DiFMUP substrate, 30 min pre-incubation, read-out: S HP2 I C50; for SHP2 IC50 times lower than control compound 11a-1: relative to 11a-1, IC50 = 0.108 µM
T1 construct: purchased GenScript
T1 sequence (Q06124 224-528): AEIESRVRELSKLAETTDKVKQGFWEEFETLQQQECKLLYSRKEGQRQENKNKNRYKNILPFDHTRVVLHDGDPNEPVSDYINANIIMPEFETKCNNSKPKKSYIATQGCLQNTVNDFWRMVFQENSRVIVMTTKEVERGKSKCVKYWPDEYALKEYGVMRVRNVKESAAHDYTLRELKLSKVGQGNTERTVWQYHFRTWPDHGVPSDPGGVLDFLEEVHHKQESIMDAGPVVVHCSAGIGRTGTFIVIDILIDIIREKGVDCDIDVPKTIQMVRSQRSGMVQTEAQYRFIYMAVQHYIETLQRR
Description: This experiment evaluates the inhibitory effect of the test compounds on SHP2 enzyme activity by detecting the reaction between the human recombinant protein SHP2 enzyme and the substrate.
The stock solutions of the reaction buffer components were thawed and mixed homogeneously at room temperature, to prepare the reaction buffer (55 mM HEPES pH = 7.2 (Sigma, Cat. No. #PHR1428), 100 mM NaCl (Beyotime, Cat. No. #ST374, 5 M solution), 0.5 mM EDTA (Beyotime, Cat. No. #ST066), 1 mM DL-Dithiothreitol (DTT) (Sigma, Cat. No. #D9779), 0.002% BSA (Solarbio, Cat. No. #A8010), 0.001% Brij35 (Brij® L23 solution (Brij35) (Sigma, Cat. No. #B4184)). The SHP2 enzyme (catalytic domain, amino acid sequence 224-528, expressed and purified by GenScript) was thawed slowly on ice. 1 µL of this solution (1.37 mg/mL) was added to 386 µL of the reaction buffer to dilute it to 100 nM. Then, 120 µL of the 100 nM SHP2 enzyme solution was added to 2880 µL of reaction buffer to prepare a 4 nM SHP2 enzyme working solution. The test compounds and the specific inhibitor of SHP2 (11a-1, used as a positive control, Zeng, L. et al., J. Med. Chem. 2014, 57, 6594-6609) were prepared as 10 mM DMSO solutions. 10 µL of the 10 mM compound solution was mixed with 20 µL of DMSO solution, and then serially diluted 3-fold, resulting in 10 concentrations. 1 µL of the serially diluted solution was mixed with 99 µL of reaction buffer to obtain a 10-fold diluted compound working solution.
A 96-well black half-area microplate (Greiner, catalog #675076) was used. 25 µL of 4 nM SHP2 enzyme working solution and 5 µL of 10x compound working solution were added to each well and incubated at room temperature for 30 minutes. 15 µL of DiFMUP substrate (Thermo Fisher Scientific, catalog #D6567) was added to 2985 µL of reaction buffer to prepare a 50 µM substrate working solution. After incubation of the compounds and SHP2 enzyme, 20 µL of the 50 µM substrate working solution was added to each well and incubated at room temperature for 5 minutes. The plate was then read on a multi-mode microplate reader (BioTek, Synergy H1) at 340 nm/450 nm fluorescence.
Data were analyzed using GraphPad Prism 9.0 software. A non-linear S-curve regression dose-response-inhibition equation was used to fit the data and generate the dose-response curve, from which the IC50 value was calculated. [formula]

KYSE520 = assay: CellTiter-Glo cell proliferation inhibition, KYSE520; assay type: cell-based, human; conditions: Homo sapiens, KYSE-520; KYSE520 cells, 120 hours, CellTiter-Glo
Source text: In this study, the CellTiter-Glo® Luminescent Cell Viability Assay kit from Promega was used to evaluate the inhibitory effects of the disclosed compounds on the proliferation of cell lines KYSE520 (a human esophageal squamous cell carcinoma cell line dependent on SHP2 for growth), MeWo (a human malignant melanoma cell line), and MV4-11 (an RTK-mutant human acute monocytic leukemia cell line).
KYSE520 cells (Nanjing Kebaio Biotechnology Co., Ltd., Catalog #CBP60658) were thawed by rapidly shaking the cryovial in a 37 °C water bath to thaw within 1 minute. The thawed cell suspension was mixed homogeneously with RPMI 1640 medium (HyClone, Catalog #SH30027.01) containing 10% FBS (ExCell, Catalog #FND500), centrifuged at 1000 rpm for 5 minutes, and the supernatant was discarded. The cell pellet was resuspended in 5 mL of complete culture medium (RPMI 1640 medium containing 10% FBS) and placed in a cell culture flask with 25 cm^2 of bottom area, then cultured in a cell culture incubator at 37 °C, 95% humidity, and 5% CO2. Cell passaging was performed when the cell confluence reached approximately 80%. During cell passaging, the old culture medium was discarded, the cells were washed once with DPBS (Thermo Fisher, Catalog #14190-144), and 1 mL of trypsin (Thermo Fisher, Catalog #25200072) was added to digest the cells. When the cells dispersed into single cells and detached from the bottom of the culture flask, 3 mL of fresh complete culture medium was added to stop the digestion. After gently pipetting the cell suspension, 1/5 of the cell suspension was retained, 5 mL of fresh complete culture medium was added, and after mixing, the cells were placed in a cell culture flask for further culture. Cell plating was performed when the cell confluence again reached approximately 80%. During cell plating, following the cell passaging method, 1/5 of the cell suspension was retained for continued culture, and the remaining 4/5 of the cell suspension was placed in a 15 mL centrifuge tube. Cell viability was determined using the trypan blue exclusion method to ensure that cell viability was above 90%. A cell suspension with a density of 2.22 × 10^4 cells/mL was prepared using complete culture medium, and 135 µL of the cell suspension was added to a 96-well transparent flat-bottom black-walled cell culture plate (Greiner, Catalog #655090), resulting in a cell density of 3000 viable cells per well. A control group containing only complete culture medium without cells and compounds (i.e., culture medium control) and a control group containing cells but no compound (i.e., cell control) were set up. The cell plates were incubated overnight in a cell culture incubator. First, a 10 mM stock solution of the compound (Example compound and positive control compound 11a-1) in DMSO (Damas-beta, catalog #75927R) was serially diluted 3-fold to the 9th concentration, and a 10th concentration containing only DMSO (without compound) was also prepared as a control. Then, the DMSO solutions containing different concentrations of the compound were diluted 100-fold with complete culture medium, resulting in a 1% DMSO concentration in each solution. Finally, 15 µL of each solution was added to the corresponding wells of the cell culture plate, resulting in a starting compound concentration of 10 µM, with a 3-fold dilution between adjacent concentrations, and a final DMSO concentration of 0.1% in the cell culture plate. The cell plates were then incubated in the cell culture incubator for another 120 hours.
For endpoint detection, CellTiter-Glo reagent (Promega, catalog number #G7573, CellTiter-Glo® Luminescent Cell Viability Assay Kit) was melt and each cell plate was moved to room temperature for equilibration for 30 minutes. 75 µL (KYSE520 cells) or 50 µL (MeWo cells and MV 4-11 cells) of CellTiter-Glo was added to each well of the corresponding cell plate. The plates were shaken on a track-mounted shaker for 2 minutes to fully lyse the cells. […]

IC50 [1] [nM]	SHP2 IC50 times lower than control compound 11a-1 [1]	SMILES	IC50 (KYSE520) [µM]
66		CC1(n2c(-c3ccc(NC(=O)C(=O)Nc4ccc(N5CC[C@H](CO)C5)cc4)cc3)cc3cc(F)c(-c4nnn[nH]4)cc32)CCC1 [Example 13]	0.182
120		O=C(Nc1ccc(-c2cc3cc(F)c(-c4nnn[nH]4)cc3n2C2CCC2)cc1)C(=O)Nc1ccc(N2CCC(F)(CO)C2)cc1 (stereo not drawn) [Example 17]	0.185
111		CC(C)(O)CC1CCN(c2ccc(NC(=O)C(=O)Nc3ccc(-c4cc5cc(F)c(-c6nnn[nH]6)cc5n4C4CCC4)cc3)cc2)CC1 [Example 27]	0.17
86		C[C@@H](O)C1CCN(c2ccc(NC(=O)C(=O)Nc3ccc(-c4cc5cc(F)c(-c6nnn[nH]6)cc5n4C4(C)CCC4)cc3)cc2)CC1 [Example 30]	0.192
88		CCC(O)C1CCN(c2ccc(NC(=O)C(=O)Nc3ccc(-c4cc5cc(F)c(-c6nnn[nH]6)cc5n4C4CCC4)cc3)cc2)CC1 (stereo not drawn) [Example 31]	0.116
61		O=C(Nc1ccc(-c2cc3cc(F)c(-c4nnn[nH]4)cc3n2C2CCC2)cc1)C(=O)Nc1ccc(N2CCC(C(O)C(F)(F)F)CC2)cc1 (stereo not drawn) [Example 32]	0.182
52		CC(C)(O)C1CCN(c2ccc(NC(=O)C(=O)Nc3ccc(-c4cc5cc(F)c(-c6nnn[nH]6)cc5n4Cc4ccccc4)cc3)cc2)CC1 [Example 36]	0.12
34	3-4 times	CC1(n2c(-c3ccc(NC(=O)C(=O)Nc4ccc(N5CCC6(CCCOC6)CC5)cc4)cc3)cc3cc(F)c(-c4nnn[nH]4)cc32)CCC1 [Example 75]	0.103
30	3-4 times	CC1(n2c(-c3ccc(NC(=O)C(=O)Nc4ccc(N5CC6(CCC(O)CC6)C5)cc4)cc3)cc3cc(F)c(-c4nnn[nH]4)cc32)CCC1 [Example 82]	0.097
64		CC1(n2c(-c3ccc(NC(=O)C(=O)Nc4ccc(N5CC6(CCC(CO)CC6)C5)cc4)cc3)cc3cc(F)c(-c4nnn[nH]4)cc32)CCC1 [Example 86]	0.158
89		CC(C)(O)C1CCC2(CC1)CN(c1ccc(NC(=O)C(=O)Nc3ccc(-c4cc5cc(F)c(-c6nnn[nH]6)cc5n4C4CCC4)cc3)cc1)C2 [Example 87]	
148		CC(C)(O)C1CCC2(CC1)CN(c1ccc(NC(=O)C(=O)Nc3ccc(-c4cc5cc(F)c(-c6nnn[nH]6)cc5n4C4(C)CCC4)cc3)cc1)C2 [Example 88]	
139		CC1(n2c(-c3ccc(NC(=O)C(=O)Nc4ccc(N5CCC6(CC(O)C6)C5)cc4)cc3)cc3cc(F)c(-c4nnn[nH]4)cc32)CCC1 (stereo not drawn) [Example 90]	
93		CC1(O)CC2(CCN(c3ccc(NC(=O)C(=O)Nc4ccc(-c5cc6cc(F)c(-c7nnn[nH]7)cc6n5C5CCC5)cc4)cc3)C2)C1 (stereo not drawn) [Example 91]	0.101
56		CC1(O)CCC2(CCN(c3ccc(NC(=O)C(=O)Nc4ccc(-c5cc6cc(F)c(-c7nnn[nH]7)cc6n5C5CCC5)cc4)cc3)C2)C1 (stereo not drawn) [Example 93]	
83		CC(C)(O)C1CC2(CCN(c3ccc(NC(=O)C(=O)Nc4ccc(-c5cc6cc(F)c(-c7nnn[nH]7)cc6n5C5CCC5)cc4)cc3)CC2)C1 [Example 98]	0.195
77		CC(C)(O)C1CC2(CCN(c3ccc(NC(=O)C(=O)Nc4ccc(-c5cc6cc(F)c(-c7nnn[nH]7)cc6n5C5(C)CCC5)cc4)cc3)CC2)C1 [Example 99]	0.17
49		CC1(n2c(-c3ccc(NC(=O)C(=O)Nc4ccc(N5CCC6(CCC(O)C6)CC5)cc4)cc3)cc3cc(F)c(-c4nnn[nH]4)cc32)CC1 (stereo not drawn) [Example 102]	0.116
70		CC1(O)CCC2(CCN(c3ccc(NC(=O)C(=O)Nc4ccc(-c5cc6cc(F)c(-c7nnn[nH]7)cc6n5C5CCC5)cc4)cc3)CC2)C1 (stereo not drawn) [Example 104]	0.125
86		CC1(O)CCC2(CCN(c3ccc(NC(=O)C(=O)Nc4ccc(-c5cc6cc(F)c(-c7nnn[nH]7)cc6n5C5(C)CCC5)cc4)cc3)CC2)C1 (stereo not drawn) [Example 105]	
105		O=C(Nc1ccc(-c2cc3cc(F)c(-c4nnn[nH]4)cc3n2C2CCC2)cc1)C(=O)Nc1ccc(N2CCC3(CCC(CO)CC3)CC2)cc1 [Example 112]	
> 10000		O=C(Nc1ccc(-c2ccsc2)cc1)C(=O)Nc1ccc(-c2cc3ccc(-c4cnn[nH]4)cc3n2C2CCC2)cc1 [Example 121]	
23		O=C(Nc1ccc(-c2cc3cc(F)c(-c4nnn[nH]4)c(F)c3n2C2CCC2)cc1)C(=O)Nc1ccc(N2CCC3(CCOC3)CC2)cc1 [Example 126]	
144		N#Cc1nnc(-c2cc3c(cc2F)cc(-c2ccc(NC(=O)C(=O)Nc4ccc(N5CCC6(CCOC6)CC5)cc4)cc2)n3C2CCC2)[nH]1 [Example 127]	
> 10000		Cc1nnc(-c2cc3c(cc2F)cc(-c2ccc(NC(=O)C(=O)Nc4ccc(N5CCC6(CCOC6)CC5)cc4)cc2)n3C2CCC2)[nH]1 [Example 128]	

SMILES	IC50 [1] [nM]	SHP2 IC50 times lower than control compound 11a-1 [1]	IC50 (KYSE520) [µM]
CC1(n2c(-c3ccc(NC(=O)C(=O)Nc4ccc(N5CC6(CCOCC6)C5)cc4)cc3)cc3cc(F)c(-c4nnn[nH]4)cc32)CCC1 [Example 58]	31	3-4 times	0.125

Source: patent EP4741383A1, “COMPOUND AND USE THEREOF AS ANTI-CANCER DRUG” (Tyligand Bioscience (Shanghai) Limited, priority 2023, dated 2025)
